From patent US7645882B2, “Inhibitor of protein modification products formation” (priority 2003, dated 2010)

Experiments:
[1] = test system: middle cerebral artery ischemia-reperfusion model; assay: Cerebroprotective action in middle cerebral artery ischemia-reperfusion model; assay type: in vivo, rat; settings: for rotor rod test, ratio to before occlusion (%), Ave: reperfusion vs before occlusion
Description: CD(SD)IGS male rats (Japan Charles river Kabushiki kaisha, Hino farm, room No. 22, specific product) (8 rats per one group) having body weight 270 to 350 g were anesthetized by 2% isoflurane (mixed bas comprising of 70% N2O (laughter gas) and 30% O2) to immobilize, and then the rats were put on warming plate to keep the rectal and brain temperature 37 to 38° C. After that, to observe the stability in the examination, cannula which was made by polyethylene (PE-50, Becton Dickinson) was inserted and left in caudal artery of said animal, and this made blood drawing and blood pressure determining to monitor the biochemical parameter such as blood sugar level, hematocrit, CO2 concentration, oxygen partial pressure, pH, blood pressure and etc. In addition, cerebral blood flow in cortex was determined by laser doppler fluorometry (Neuroscience.inc: OMEGA FLOW (FLO-C1)), putting the detection site directly on cranium on the point left 4 mm from bregma. Left neck of such animal was incised, and from internal and external carotid fork of common carotid artery to upstream of internal carotid, nylon surgical thread (length 16 mm, diameter 0.2 to 0.3 mm, with silicon coating on its tip 3 mm) was passed and left, middle cerebral artery was obstructed for 2 hours. After that, the thread was removed to release the middle cerebral artery, and blood was reperfused for 21 hours. To each animals, 3.0 mg/kg of edaravone (control) and 5.58 mg/kg of TM-2002 were respectively administered twice by cannula which is left in caudal artery 5 minutes and 5 hours after middle cerebral artery occlusion. After said operation, the brain was removed from said animal, and after preparing 7 brain slices with 2 mm thickness, to TTC stain (0.8 g of 2,3,5-triphenyltetrazolium chloride (Sigma) dissolved in 40 ml of saline) were soaked at 37° C. for 15 minutes to stain, the area of infarction and fixed by 10% neutral formalin liquid to prepare specimen. Such specimens were created the image by CCD camera respectively, and analysed according to method of Swanson et al. (J Cereb Blood Flow Metab 10:290-293; 1994). […] Furthermore, function recovering was estimated before and after the operation by rotor rod test that estimates how much they can walk on rotating rotor.

[2] = test system: normal rat (WKY rat); assay: Vitamin B6 deficiency in normal rat; assay type: in vivo; settings: 13 mg/kg/rat/once twice daily by sonde, 20 weeks
Description: TM-2002 was administered to normal rat (WKY rat: Japan SLC) to examine the presence of vitamin B6 deficiency. Aminoguanidine, which is known its vitamin B6 capturing effect was used as control. Each group involves 10 rats. 13 mg/kg/rat/once of TM-2002 or aminoguanidine suspended in carboxymethyl cellulose (0.5%) was respectively administered coercively using sonde twice a daily. Administration term was 20 weeks. The conventional diet (CRF1: Oriental yeast) was used.
After 20 weeks, the appearance of WKY rat was observed.

[3] = Examination of stabilizing agent in TM-2002 hydrochloride solution; assay type: physicochemical
Excerpt: Several kind of stabilizing agent was usually used to stabilize the medicament and the effective manner is addition of antioxidant. Particularly, the material having lower oxidation-reduction potential is effective to stabilize highly oxidized compound. Accordingly, for sodium acid sulfite (NaHSO3) and L-cystein ([…]), which are usually used in injection, the stability was examined by adding such materials to TM-2002 hydrochloride aqueous solution.
The solving state of TM-2002 hydrochloride solution added sodium acid sulfite was examined in following manner; 1 ml of purified water, sodium acid sulfite (0.5 mg) and sodium acid sulfite (1 mg) solution was prepared respectively; to these solutions, there was added 63 mg of TM-2002 hydrochloride, stirred and solved; the solutions allowed to warm to room temperature to observe the solving state. […] Accordingly, the stability of TM-2002 itself will increase by using hydrochloride.
The solving state of TM-2002 hydrochloride solution added L-cystein hydrochloride was examined in following manner; 1 mg and 2 mg of L-cystein hydrochloride were dissolved in 1 ml of purified water respectively; pH was adjusted to 6.5; to these solutions, there was added 63 mg of TM-2002 hydrochloride, stirred and solved; the solutions allowed to warm to room temperature to observe the solving state. […] In addition, the degradability was observed by thin layer chromatography (TLC/Silica-gel 60F254 (Merck Japan)/developing solvent: chloroform:methanol=9:1/detection:UV=254 nm). […] Accordingly, the present invention provides lyophilized formulation comprising L-cystein by treating TM-2002 hydrochloride solution at low temperature and lyophilizing.

[4] = Solubility and stability of TM-2002 injectable lyophilized formulation; assay type: physicochemical; settings: room temperature, at 10 hours
Description: L-cystein hydrochloride (160 mg) was added to 80 ml of purified water, stirred and solved. The solution was adjust at pH 6.7 with 1N NaOH aqueous solution. Then 1 g of TM-2002 hydrochloride was added, stirred and solved, and the solution diluted with purified water to 100 ml with measuring flask. Such solution was divided into vial container of 50 ml by 6.3 ml each, frozen immediately with dry ice, and then stored at −80° C. to freeze completely. This was subjected to lyophilized for 3 days using lyophilizer. After lyophilizing, covered by rubber cap and sealed by aluminum cap using fastener, TM-2002 injectable lyophilized formulation was prepared.
To TM-2002 injectable lyophilized formulation prepared above, there was added 20 ml of purified water per 1 vial. […] TLC (Kiezel gel 60F254/developing solvent: CHCl3:MeOH=9:1/detection:UV=254 nm) was carried out to examine the change of ingredient. […] The result of TLC is represented in FIG. 16. When the solution was further diluted with saline, the stability was as same. […] The formulation is suitable for injectable lyophilized formulation which is prepared before use, and stable and usable.

[5] = test system: pentosidine; assay: Pentosidine production inhibiting effect with BSA and arabinose; assay type: biochemical; settings: BSA and arabinose instead of plasma
Description: Fresh heparinized plasma samples were obtained after informed consent from hemodialysis patients prior to the dialysis session, and filtrated and sterilized. To the plasma (450 μL), there was added the solution of TM-2002 in dimethylsurphoxide (50 μL) (final concentration: 0.8, 2.0, 5.0 mM) incubated at 37° C. for one week. Then, the amount of pentosidine was measured.
Measurement of the amount of pentosidine was made as follows: to each incubated sample (50 μL) was added an equal volume of 10% trichloroacetic acid, followed by centrifugation at 5000 g for 5 minutes; after removal of the supernatant, the pellet was washed by 5% trichloroacetic acid (300 μL); the pellet was dried under reduced pressure and then subjected to hydrolysis in 6N HCl solution (100 μL) at 110° C. under nitrogen atmosphere for 16 hours; to the hydrolysate, 5N NaOH (100 μL) and 0.5 M phosphate buffer (pH 7.4) (200 μL) were added, followed by filtration through a porefilter with a pore size of 0.5 μm and dilution with PBS. The concentration of free pentosidine was determined by reversed-phase HPLC using a fluorescence detector (Miyata, T. et al.: Proc. Natl. Acad. Sci. USA, Vol. 93, p. 2353-2358, 1996). The effluent was monitored at 335/385 nm of excitation/emission wavelength. Synthetic pentosidine was used as the standard. The detection limit of pentosidine was 0.1 pmol/mg protein.
The plasma from patients was substituted to BSA and arabinose, and the pentosidine production inhibiting effect of another compounds (I) or (II) was measured in the same manner as [Test Examination 1]. Therein, “-” means that the examination was not carried out.

[6] = test system: GRP78; assay: ER stress inducing molecule expression in RIN-5F cells, western blot, GRP78; assay type: cell-based, rat; settings: tunicamycin added, 8 hours
Description: (§1) Rat pancreatic β cell line (RIN-5F) was seeded in 6 well culture plate to 1.0×10^5 cells/well, and after 24 hours, TM-2002 in DMSO (200 mM, 50 mM) were added to be final concentration 200 μM, 50 μM. After another 1 hour, 0.2 μl of tunicamycin (Sigma) in methanol(1 mg/ml) was added. After culturing 8 hours, the cells were washed 2 ml of PBS(+) twice, and the cells were dissolved in 100 μl of lysate (50 mM Tris-HCl (pH 7.5), 150 mM NaCl, 100 mM NaF, 100 mM sodium phosphate (pH 7.4), 2 mM Na3VO4, 0.1% protease inhibitor cocktail (Sigma), 1% Triton X-100). To remove the insoluble fraction of this lysate, centrifuged at 12,000×g for 10 minutes and obtained the supernatant to give cell extract. The extract was quantified its protein concentration using DC protein assay kit (Bio Rad), and each samples (1 μg) was electrophoresed by SDS-PAGE and transferred to PVDF membrane. The membrane was blocked with 5% skimmed milk/0.1% Tween20-TBS for 1 hour at room temperature, and reacted with anti-ORP150 antibody in 5% skimmed milk/0.1% Tween20-TBS (2000 folds: specific antibody), anti-GRP78 antibody (Santa Cruz) in 5% skimmed milk/0.1% Tween20-TBS (100 folds) and anti-actin antibody (Sigma) in 5% skimmed milk/0.1% Tween20-TBS (200 folds) for 2 hours. […] The detected signal was analyzed by Lane analyzer (ATTO) and calculated the signal strength. […]

[7] = test system: ORP150; assay: ER stress inducing molecule expression in RIN-5F cells, western blot, ORP150; assay type: cell-based, rat; settings: tunicamycin added, 8 hours
Description: as §1

[8] = 63 mg in 1 ml purified water only, pH 2 to 2.5, after 24 hours

| Compound | Nervous condition estimation test, Ave (grading system of Bederson et al.) ([1]; after occlusion 10 min) | Nervous condition estimation test, Ave (grading system of Bederson et al.) ([1]; after occlusion 2 hrs) | Nervous condition estimation test, Ave (grading system of Bederson et al.) ([1]; after reperfusion 10 min) | Nervous condition estimation test, Ave (grading system of Bederson et al.) ([1]; after reperfusion 3 hrs) | Nervous condition estimation test, Ave (grading system of Bederson et al.) ([1]; after reperfusion 4 hrs) | Nervous condition estimation test, Ave (grading system of Bederson et al.) ([1]; after reperfusion 22 hrs) | rotor rod test, Ave (reading value of count from rotor rod machine) ([1]; before occlusion) | rotor rod test, Ave (reading value of count from rotor rod machine) ([1]; reperfusion) | rotor rod test, ratio to before occlusion (%), Ave [1] [%] | Pentosidine production rate in 5 mM of medicament (%) [5] [%] | also measured |
| --- | --- | --- | --- | --- | --- | --- | --- | --- | --- | --- | --- |
| CC1=NN(c2ccccc2)C(=O)C1 [Edaravone, 3-methyl-1-phenyl-2-pyrazolin-5-one, reference compound] | 2.8 | 2.7 | 2.2 | 2.1 | 2.0 | 1.5 | 197.0 | 153.1 | 160.4 | – | cerebral infarction nest ([1]; 2 hours occlusion, 21 hours reperfusion, edaravone 3.0 mg/kg, TM-2002 5.58 mg/kg, twice (5 minutes and 5 hours after occlusion), vs excipient): significantly reduced; improvement for nervous condition and recovering the function ([1]; compared to excipient single administration): remarkably shown |
| Cc1ncc2c(c1O)C(c1c(C)nn(-c3ccccc3)c1O)OC2 (centres unmarked) [TM-3001, 1-(5-hydroxy-3-methyl-1-phenyl-1H-pyrazol-4-yl)-6-methyl-1,3-dihydro-furo[3,4-c]pyridin-7-ol] | 2.8 | 2.6 | 1.5 | 1.3 | 2.0 | 2.0 | 183.4 | 160.6 | 78.1 | – | – |
| N=C(N)NN [aminoguanidine] | – | – | – | – | – | – | – | – | – | – | condition caused by vitamin B6 deficiency (appearance) [2]: skin inflammation, epilepsy and convulsion caused by cerebral disorder were observed |
| Cc1ncc2c(c1O)C(c1c(C)nn(-c3ccccc3)c1O)OC2.Cl (centres unmarked) [compound 69, 1-(5-hydroxy-3-methyl-1-phenyl-1H-pyrazol-4-yl)-6-methyl-1,3-dihydro-furo[3,4-c]pyridin-7-ol (hydrochloric acid salt)] | – | – | – | – | – | – | – | – | – | 2.94 | TM-2002 degradation [3, 8]: significant suppress of TM-2002 degradation was observed; solving state [3, 8]: no change was observed in its solving state; solving state ([3]; 63 mg in 1 ml with 0.5 mg or 1 mg sodium acid sulfite, room temperature, after 24 hours): remarkable precipitates were observed; solving state ([3]; 63 mg in 1 ml with 1 mg or 2 mg L-cystein hydrochloride, after 24 hours): no change was observed in solving state; solving state ([3]; 63 mg in 1 ml with 1 mg or 2 mg L-cystein hydrochloride, pH adjusted to 6.5, room temperature): no precipitates and deposits was observed; stabilization (TLC) ([3]; by addition of L-cystein, room temperature): significantly stabilized; degradability (TLC) ([3]; left over 24 hours at room temperature): degraded very slowly; stability of the solution ([3]; solution with L-cystein hydrochloride, preservation at −20° C., one week): stable after one week; solving state ([3]; with sodium sulfite or sodium pyrosulfite instead of sodium acid sulfite): crystal precipitate was deposited; decomposition products (TLC) [4]: decomposition products were observed |
| CCOC(=O)C1=NN(c2ccccc2)/C(=C2\C(=O)N(c3ccccc3)N=C2c2ccccc2)S1 [compound 74, 5-(5-oxo-1,3-diphenyl-1,5-dihydro-pyrazol-4-ylidene)-4-phenyl-4,5-dihydro-[1,3,4]thiazole-2-carboxilic acid-ethyl este] | – | – | – | – | – | – | – | – | – | 87.24 | – |
| tunicamycin [reference compound] | – | – | – | – | – | – | – | – | – | – | GRP78 expression compared to control sample [6]: 1.46 fords; ORP150 expression compared to control sample [7]: 1.88 folds |
